Source: patent US20250002463A1, “NEW SALT FORMS OF AMILORIDE AND ITS DERIVATIVES FOR PHARMACEUTICAL USE” (PSOMRI Holding AB, priority 2021, published 2025)
Values joined by “and” are separate entries in the source; they are usually repeats but may differ in a detail not shown here. Equal values may be shown once.

What was measured:
[1] = Kinetic and thermodynamic solubility in water at 37° C. (1 h and 18 h, UPLC)
[2] = Physio-chemical stability study, open container 25° C./60% RH and 40° C./75% RH (UPLC, TGMS, HT-XRPD); type: physicochemical; settings: for UPLC 1 week / UPLC 3 weeks / UPLC 3 days: chemical purity
Experimental: Open container at 25° C. and 60% RH • 2. Open container at 40° C. and 75% RH

[3] = Aqueous solubility of salts, Example 1 (aliquot addition; HPLC after 24 h at RT; pH of solutions/mother liquors); settings: Example 1; RT; aliquot addition (ranges) or HPLC after 24 h, not in Table 3
Experimental: The aqueous solubility of the salts was estimated qualitatively by the solvent aliquot addition method. Aliquots of water up to 500-600 μL were added to approximately 5 mg of salt. The solubility of the free base was also estimated.
The suspensions were let equilibrating at room temperature for 24 h. Afterwards, solids were separated from the liquid phases. The liquid phases were filtered and analyzed by HPLC to determine the solubility. The pH of solutions/mother liquors was also measured.
Suspensions of the two salts were prepared in water with a concentration of 9-10 mg/mL. The mixtures were let equilibrating at RT for 24 h. Afterwards, solids were separated from the liquid phases. The liquid phases were filtered and analyzed by HPLC to determine the solubility. The pH of mother liquors was also measured.

[4] = Hygroscopicity by Dynamic Vapor Sorption (DVS); type: physicochemical; settings: based on water vapour uptake at 25° C./80% RH
Experimental: The hygroscopic behaviour of the salts was evaluated through Dynamic Vapor Sorption (DVS) measurements with an RH profile 40-95-0-40% at 25° C. and a dm/dt of 0.002. The classification of the hygroscopic behaviour is based on the water vapour uptake at 25° C./80% RH in first adsorption cycle of sorption isotherm.

[5] = Polymorphic landscape by thermocycling of amorphous salt in 15 solvents; type: physicochemical; settings: for polymorphs found: Example 3, thermocycling from amorphous salt, 15 solvents; for HT-XRPD Vac.: vacuum-dried solid; for HT-XRPD Vac. (AAC): vacuum-dried solid after AAC 48 h; for HT-XRPD Evap.: evaporated liquid; for HT-XRPD Evap. (AAC): evaporated liquid after AAC 48 h
[6] = Polymorphism: solid forms found in salt screen by HT-XRPD; type: physicochemical; settings: Example 1 salt screen in MeOH, DME, THF
Experimental: The precipitated solids were analyzed by high throughput X-ray powder diffractometry (HT XRPD). Liquid phases (both solutions and mother liquors) were evaporated at ambient conditions and the residual solids were analyzed by HT XRPD.
The salt screen experiments were carried out in methanol (MeOH), 1,2-dimethoxyethane (DME) and tetrahydrofuran (THF).

[7] = Intrinsic dissolution rate (rotating disc, μDiss) in water and FaSSIF; type: physicochemical; settings: for IDR (mg/cm^2/min) Individual: single disc
Experimental: Rotating disc intrinsic dissolution determinations were performed with a μDiss apparatus (Pion, USA) equipped with 6 independent glass fiber probes each connected to a diode area. Before the start of the experiment the probes were calibrated using the spectrum of a Mercury 362 nm pen-ray lamp. Discs were prepared in a passivated aluminum dye with a mini-IDR press (Heath Scientific, UK).
Six dilutions of benzamil lactate salt were prepared in the dissolution media in the range from 0 to 0.5 mg/mL, and the solutions were stirred with a cross-shaped magnetic stirrer. These dilutions were used for the calibration curve which is used for the calculation of the amount of benzamil in solution. Moreover, the solutions were used to select the wavelength at which the samples were to be measured and to select the proper path length.
The dyes were placed in their Teflon holder magnet stirrer and placed into 20 mL glass vials. Before to the sample measurement, a blank of each media was taken in the respective channel. The experiment started by the gentle addition of the pre-warmed dissolution media. Vials were incubated at 37° C. under continuous stirring at 100 rpm for a maximum of 4 h. UV absorption was measured with the in-line probes at regular intervals. Upon completion of the experiment the pH of the solution was determined. Concentrations of API in solution were calculated with use of the calibration curve and plotted against time. Dissolution rates were calculated over the linear parts of the curves. All dissolution rate experiments were done in triplicate except for TFA1 which were done in duplicate due to the lack of material.

[8] = Physical stability under Accelerated Aging Conditions (AAC, 40° C./75% RH, 2 days), HT-XRPD
[9] = water, 37° C., 30 mg/ml suspension
[10] = open container 25° C. and 60% RH
[11] = open container 40° C. and 75% RH
[12] = thermocycling in Acetone/water (95/5% v/v)
[13] = thermocycling in EtOH/water (95/5% v/v)
[14] = thermocycling in IPA/water (95/5% v/v)

solubility compared with the TFA salts ([1]; overall conclusion of Example 3): significantly higher solubility
XRPD 1 h Amb. ([1]; residual solid after 1 h in water at 37° C., ambient-dried): LAC1
XRPD 1 h Vac. ([1]; residual solid after 1 h in water at 37° C., vacuum-dried): LAC1
XRPD 18 h Amb. ([1]; residual solid after 18 h in water at 37° C., ambient-dried): Am
XRPD 18 h Vac. ([1]; residual solid after 18 h in water at 37° C., vacuum-dried): LAC1
pH after 10 min [1, 9]: 5.9
pH after 1 h [1, 9]: 5.8
pH after 18 h [1, 9]: 5.8
Solubility (mg/mL) 1 h ([1]; water, 37° C., 1 h (kinetic), UPLC): 24.3 mg/mL
Solubility (mg/mL) 18 h ([1]; water, 37° C., 18 h (thermodynamic), UPLC): 23.6 mg/mL
UPLC t0 ([2]; chemical purity at start of stability study): 99.4%
UPLC 1 week [2, 10]: 99.4%
UPLC 3 weeks [2, 10]: 99.4%
UPLC 3 days [2, 10]: 99.4%
UPLC 1 week [2, 11]: 99.2%
UPLC 3 weeks [2, 11]: 99.4%
UPLC 3 days [2, 11]: 99.4%
physical and chemical stability ([2]; incubation for 3 weeks at 25° C./60% RH and 40° C./75% RH): physically and chemically stable
TGMS 1 week [2, 10]: <0.1% water
XRPD 1 week [2, 10]: LAC1
TGMS 3 weeks [2, 10]: <0.1% water
XRPD 3 weeks [2, 10]: LAC1
TGMS 3 days [2, 10]: 1.2% water
XRPD 3 days [2, 10]: LAC1
TGMS 1 week [2, 11]: 0.2% water
XRPD 1 week [2, 11]: LAC1
TGMS 3 weeks [2, 11]: <0.1% water
XRPD 3 weeks [2, 11]: LAC1
TGMS 3 days [2, 11]: 1.5% water
XRPD 3 days [2, 11]: LAC1
TGMS t0 ([2]; start of stability study): 0.4% water
XRPD t0 ([2]; start of stability study): LAC1
Water solubility [3]: 26 to 51 mg/mL
classification of hygroscopic behaviour [4]: slightly hygroscopic
polymorphs found ([5]; listed as benzamil lactate salt): not to be polymorphic
polymorphs found ([5]; listed as lactate salt): Only one polymorph
HT-XRPD Vac. ([5]; thermocycling in 1,4-Dioxane): LAC1
HT-XRPD Vac. (AAC) ([5]; thermocycling in 1,4-Dioxane): LAC1
HT-XRPD Vac. ([5]; thermocycling in ACN): LAC1
HT-XRPD Vac. (AAC) ([5]; thermocycling in ACN): LAC1
HT-XRPD Vac. ([5]; thermocycling in Acetone): LAC1
HT-XRPD Vac. (AAC) ([5]; thermocycling in Acetone): LAC1
HT-XRPD Vac. [5, 12]: LAC1
HT-XRPD Vac. (AAC) [5, 12]: LAC1
HT-XRPD Vac. ([5]; thermocycling in DME): LAC1
HT-XRPD Vac. (AAC) ([5]; thermocycling in DME): LAC1
HT-XRPD Vac. ([5]; thermocycling in EtOAc): LAC1
HT-XRPD Vac. (AAC) ([5]; thermocycling in EtOAc): LAC1
HT-XRPD Vac. ([5]; thermocycling in EtOH): LAC1
HT-XRPD Vac. (AAC) ([5]; thermocycling in EtOH): LAC1
HT-XRPD Evap. [5, 13]: LAC1
HT-XRPD Evap. (AAC) [5, 13]: LAC1
HT-XRPD Vac. [5, 13]: LAC1
HT-XRPD Vac. (AAC) [5, 13]: LAC1
HT-XRPD Vac. ([5]; thermocycling in IPA): LAC1
HT-XRPD Vac. (AAC) ([5]; thermocycling in IPA): LAC1
HT-XRPD Vac. [5, 14]: LAC1
HT-XRPD Vac. (AAC) [5, 14]: LAC1
HT-XRPD Vac. ([5]; thermocycling in MEK): LAC1
HT-XRPD Vac. (AAC) ([5]; thermocycling in MEK): LAC1
HT-XRPD Evap. ([5]; thermocycling in MeOH): Oil
HT-XRPD Evap. (AAC) ([5]; thermocycling in MeOH): Oil
HT-XRPD Vac. ([5]; thermocycling in TBME): LAC1
HT-XRPD Vac. (AAC) ([5]; thermocycling in TBME): LAC1
HT-XRPD Vac. ([5]; thermocycling in THF): LAC1
HT-XRPD Vac. (AAC) ([5]; thermocycling in THF): LAC1
HT-XRPD Evap. ([5]; thermocycling in Water): LAC1
HT-XRPD Evap. (AAC) ([5]; thermocycling in Water): LAC1
HT-XRPD Vac. ([5]; thermocycling in Water): ly
HT-XRPD Vac. (AAC) ([5]; thermocycling in Water): ly
Polymorphism [6]: No
Polymorphism ([6]; listed as lactate salt): Only one polymorph
dissolution rate compared with TFA2 and TFA1 [7]: significantly faster
IDR (mg/cm^2/min) Average ([7]; FaSSIF, 37° C., 100 rpm): 0.39 ± 0.11 mg/cm^2/min
IDR (mg/cm^2/min) Average ([7]; Water, 37° C., 100 rpm): 1.87 ± 0.06 mg/cm^2/min
time until the whole tablet has been dissolved ([7]; water, 37° C.): about 50 min
Intrinsic Dissolution Rate (IDR) ([7]; water, 37° C., 100 rpm, linear part (LAC1 1 to 36 min; TFA 10-100 min)): 1.87±0.06 mg/cm^2/min
Physically stable? ([8]; AAC, 2 days at 40° C. and 75% RH, solids from thermocycling): Yes
Physically stable after AAC ([8]; Example 1, 40° C./75% RH for 2 days): physically stable and Yes
physical stability upon exposure to AAC ([8]; Example 3 thermocycling solids, 2 days at 40° C. and 75% RH): physically stable
Compound: CC(O)C(=O)O.NC(=NCc1ccccc1)NC(=O)c1nc(Cl)c(N)nc1N [LAC1]
IDR (mg/cm^2/min) Individual ([7]; FaSSIF, 37° C., 100 rpm): 0.285 mg/cm^2/min and 0.510 mg/cm^2/min and 0.389 mg/cm^2/min
IDR (mg/cm^2/min) Individual ([7]; Water, 37° C., 100 rpm): 1.870 mg/cm^2/min and 1.811 mg/cm^2/min and 1.933 mg/cm^2/min
